Values quoted from earlier work in US6656217B1, “Medical device coated with a polymer containing a nitric oxide releasing organometallic nitrosyl compound useful for the prevention of platelet aggregation” (NovoVascular, Inc., priority 1996, dated 2003).

System: platelet aggregation

## [Cl][Ru]([Cl])[Cl].[N-]=O [ruthenium nitrosyl trichioride]
  inhibition of platelet aggregation by nitric oxide generation from light activation: failed to inhibit platelet aggregation
